# From article PMC7935272 (PLoS Pathogens, 2021)
# pEC50, pKd: −log10 of the molar value. “And” between values parts separate entries of the source, which are not always exact repeats. Equal entries are not always repeated.
# Experiments:
# MeV L I1009F [1] = biological target: T1, MeV L I1009F (Measles virus, UniProt P12576, I1009F); set-up: method as in PMID 32661315; settings: minigenome, reported previously ref 36; cited from earlier work
# T1 construct: expressed in transfected cells; host or cells: BSR-T7/5
# MeV L T1010N [2] = biological target: T2, MeV L T1010N (Measles virus, UniProt P12576, T1010N); set-up: method as in PMID 32661315; settings: minigenome, reported previously ref 36; cited from earlier work
# T2 construct: expressed in transfected cells; host or cells: BSR-T7/5
# MeV L E858D [3] = biological target: T3, MeV L E858D (Measles virus, UniProt P12576, E858D); set-up: method as in PMID 32661315; settings: minigenome, reported previously ref 36; cited from earlier work
# T3 construct: expressed in transfected cells; host or cells: BSR-T7/5
# MeV L1708 I1009F = biological target: MeV L1708 I1009F; set-up: method as in PMID 32661315; settings: BLI, reported previously ref 36; cited from earlier work
# MeV L V1239A = biological target: T4, MeV L V1239A (Measles virus, UniProt P12576, V1239A); experiment: MeV minigenome dose-response assay, L V1239A; assay type: cell-based; settings: for minigenome activity, individual repeat: Figure 1E
# T4 construct: expressed in transfected cells; host or cells: BSR-T7/5
# MeV L = biological target: T5, MeV L (Measles virus, UniProt P12576); experiment: MeV minigenome dose-response assay, L WT; assay type: cell-based; settings: for minigenome activity, individual repeat: WT, Figure 1E
# T5 construct: expressed in transfected cells; host or cells: BSR-T7/5
# MeV L E858D [4] = biological target: T3, MeV L E858D; experiment: MeV minigenome dose-response assay, L E858D; assay type: cell-based; settings: EC50, L E858D vs WT
# MeV L T1010N [5] = biological target: T2, MeV L T1010N; experiment: MeV minigenome dose-response assay, L T1010N; assay type: cell-based; settings: EC50, L T1010N vs WT
# MeV L H589Y = biological target: T6, MeV L H589Y (Measles virus, UniProt P12576, H589Y); experiment: MeV minigenome dose-response assay, L H589Y; assay type: cell-based; settings: for minigenome activity, individual repeat: H589Y, Figure 1E
# T6 construct: expressed in transfected cells; host or cells: BSR-T7/5
# MeV L S768A = biological target: T7, MeV L S768A (Measles virus, UniProt P12576, S768A); experiment: MeV minigenome dose-response assay, L S768A; assay type: cell-based
# T7 construct: expressed in transfected cells; host or cells: BSR-T7/5
# MeV L L1170F = biological target: T8, MeV L L1170F (Measles virus, UniProt P12576, L1170F); experiment: MeV minigenome dose-response assay, L L1170F; assay type: cell-based; settings: for minigenome activity, individual repeat: Figure 1E
# T8 construct: expressed in transfected cells; host or cells: BSR-T7/5
# MeV L1708 = MeV L1708 (Measles virus, UniProt Q9WMB3); set-up: method as in PMID 32661315; settings: BLI, MeV L1708 WT; reported previously ref 36; cited from earlier work
# MeV L T776A = biological target: T9, MeV L T776A (Measles virus, UniProt P12576, T776A); experiment: MeV minigenome dose-response assay, L T776A; assay type: cell-based
# T9 construct: expressed in transfected cells; host or cells: BSR-T7/5
# MeV L Y1106S [6] = biological target: T10, MeV L Y1106S (Measles virus, UniProt P12576, Y1106S); experiment: MeV minigenome dose-response assay, L Y1106S; assay type: cell-based; settings: EC50, L Y1106S vs WT
# T10 construct: expressed in transfected cells; host or cells: BSR-T7/5
# MeV L Y1106S [7] = biological target: T10, MeV L Y1106S; set-up: method as in PMID 32661315; settings: minigenome, reported previously ref 36; cited from earlier work
# MeV L1708 E858D = biological target: MeV L1708 E858D; set-up: method as in PMID 32661315; settings: BLI, reported previously ref 36; cited from earlier work
# MeV L I1009F [8] = biological target: T1, MeV L I1009F; experiment: MeV minigenome dose-response assay, L I1009F; assay type: cell-based; settings: EC50, L I1009F vs WT
# MeV L1708 Y1106S = biological target: MeV L1708 Y1106S; set-up: method as in PMID 32661315; settings: BLI, reported previously ref 36; cited from earlier work
structure (smiles),measurement,setting,value
NC(=O)c1c(F)cccc1-c1cccc2cnccc12 [GHP-88309],pEC50,MeV L I1009F [1],4.73
same,pEC50,MeV L T1010N [2],5.08
same,pEC50,MeV L E858D [3],4.82
same,pKd,MeV L1708 I1009F,4.17
same,fold change to WT,"MeV L V1239A; EC50, L V1239A vs WT",0.7
same,"minigenome activity, individual repeat","MeV L V1239A; GHP-88309 0.0457247 µM, L V1239A",96 and 97 and 118
same,"minigenome activity, individual repeat","MeV L V1239A; GHP-88309 0.137174 µM, L V1239A",120 and 103
same,"minigenome activity, individual repeat","MeV L V1239A; GHP-88309 0.411523 µM, L V1239A",66 and 59 (2×)
same,"minigenome activity, individual repeat","MeV L V1239A; GHP-88309 1.23457 µM, L V1239A",80 and 79 (2×)
same,"minigenome activity, individual repeat","MeV L V1239A; GHP-88309 3.7037 µM, L V1239A",33 (2×) and 30
same,"minigenome activity, individual repeat","MeV L V1239A; GHP-88309 11.1111 µM, L V1239A",2 (2×) and 3
same,"minigenome activity, individual repeat","MeV L V1239A; GHP-88309 33.3333 µM, L V1239A",-2 and 1 (2×)
same,pEC50,"MeV L V1239A; minigenome, L V1239A",5.69
same,"minigenome activity, individual repeat",MeV L; GHP-88309 0.411523 µM,87.746 and 92.4701
same,"minigenome activity, individual repeat",MeV L; GHP-88309 1.23457 µM,77.6244 and 62.4876 and 68.5227 and 90 and 86 and 112
same,"minigenome activity, individual repeat",MeV L; GHP-88309 3.7037 µM,31.991 and 34.7895 and 30.6512 and 25 and 32 and 29
same,"minigenome activity, individual repeat",MeV L; GHP-88309 11.1111 µM,2.411 and 2.106 and 2.445 and 2 and 4 and 3
same,"minigenome activity, individual repeat",MeV L; GHP-88309 33.3333 µM,1.248 and 0.5543 and 0.7091 and -4 and 2 and 3
same,"minigenome activity, individual repeat",MeV L; GHP-88309 100 µM,0.7732 and 1.544 and 0.3453
same,pEC50,"MeV L; minigenome, L WT",5.62
same,fold change to WT,MeV L E858D [4],6.7
same,fold change to WT,MeV L T1010N [5],3.8
same,fold change to WT,"MeV L H589Y; EC50, L H589Y vs WT",1.8
same,"minigenome activity, individual repeat",MeV L H589Y; GHP-88309 0.0457247 µM,99.134 and 165.3 and 161.609
same,"minigenome activity, individual repeat",MeV L H589Y; GHP-88309 0.137174 µM,129.072 and 126.646 and 70.0978
same,"minigenome activity, individual repeat",MeV L H589Y; GHP-88309 0.411523 µM,102.614 and 60.5017 and 60.0219
same,"minigenome activity, individual repeat",MeV L H589Y; GHP-88309 1.23457 µM,96.1391 and 78.5761 and 76.4935
same,"minigenome activity, individual repeat",MeV L H589Y; GHP-88309 3.7037 µM,76.5304 and 44.0459 and 30.8961
same,"minigenome activity, individual repeat",MeV L H589Y; GHP-88309 11.1111 µM,19.3913 and 21.0627 and 38.9421
same,"minigenome activity, individual repeat",MeV L H589Y; GHP-88309 33.3333 µM,3.067 and 1.981 and 4.217
same,"minigenome activity, individual repeat",MeV L H589Y; GHP-88309 100 µM,-0.2175 and 2.229 and 0.06723
same,pEC50,"MeV L H589Y; minigenome, L H589Y",5.41
same,fold change to WT,"MeV L S768A; EC50, L S768A vs WT",0.6
same,pEC50,"MeV L S768A; minigenome, L S768A",5.90
same,fold change to WT,"MeV L L1170F; EC50, L L1170F vs WT",0.7
same,"minigenome activity, individual repeat","MeV L L1170F; GHP-88309 0.0457247 µM, L L1170F",120 and 119 and 105
same,"minigenome activity, individual repeat","MeV L L1170F; GHP-88309 0.137174 µM, L L1170F",97 and 98 and 103
same,"minigenome activity, individual repeat","MeV L L1170F; GHP-88309 0.411523 µM, L L1170F",56 and 67 and 65
same,"minigenome activity, individual repeat","MeV L L1170F; GHP-88309 1.23457 µM, L L1170F",92 (2×) and 86
same,"minigenome activity, individual repeat","MeV L L1170F; GHP-88309 3.7037 µM, L L1170F",27 and 26 and 21
same,"minigenome activity, individual repeat","MeV L L1170F; GHP-88309 11.1111 µM, L L1170F",0 (2×) and 1
same,"minigenome activity, individual repeat","MeV L L1170F; GHP-88309 33.3333 µM, L L1170F",-1 and 0 (2×)
same,pEC50,"MeV L L1170F; minigenome, L L1170F",5.62
same,pKd,MeV L1708,5.21
same,fold change to WT,"MeV L T776A; EC50, L T776A vs WT",1.1
same,pEC50,"MeV L T776A; minigenome, L T776A",5.62
same,fold change to WT,MeV L Y1106S [6],>50
same,pEC50,MeV L Y1106S [7],< 4.00
same,pKd,MeV L1708 E858D,5.07
same,fold change to WT,MeV L I1009F [8],8.3
same,pKd,MeV L1708 Y1106S,< 3.52
